# In patent US11001590B2, “Pyrazolopyrimidine derivatives” (BAYER ANIMAL HEALTH GMBH, priority 2016, dated 2021):
# Biological target: C. elegans Slo-1a (Caenorhabditis elegans, UniProt Q95V25)
# Assay: In vitro assay 1: C. elegans Slo-1a, action at a recombinant C. elegans CHO cell line (membrane potential measurement)
# Details: CHO cells expressing C. elegans Slo-1a; voltage sensitive dye, FLIPR Tetra; negative decadic logarithm of EC50
# Sequence of C. elegans Slo-1a (Q95V25 whole entry): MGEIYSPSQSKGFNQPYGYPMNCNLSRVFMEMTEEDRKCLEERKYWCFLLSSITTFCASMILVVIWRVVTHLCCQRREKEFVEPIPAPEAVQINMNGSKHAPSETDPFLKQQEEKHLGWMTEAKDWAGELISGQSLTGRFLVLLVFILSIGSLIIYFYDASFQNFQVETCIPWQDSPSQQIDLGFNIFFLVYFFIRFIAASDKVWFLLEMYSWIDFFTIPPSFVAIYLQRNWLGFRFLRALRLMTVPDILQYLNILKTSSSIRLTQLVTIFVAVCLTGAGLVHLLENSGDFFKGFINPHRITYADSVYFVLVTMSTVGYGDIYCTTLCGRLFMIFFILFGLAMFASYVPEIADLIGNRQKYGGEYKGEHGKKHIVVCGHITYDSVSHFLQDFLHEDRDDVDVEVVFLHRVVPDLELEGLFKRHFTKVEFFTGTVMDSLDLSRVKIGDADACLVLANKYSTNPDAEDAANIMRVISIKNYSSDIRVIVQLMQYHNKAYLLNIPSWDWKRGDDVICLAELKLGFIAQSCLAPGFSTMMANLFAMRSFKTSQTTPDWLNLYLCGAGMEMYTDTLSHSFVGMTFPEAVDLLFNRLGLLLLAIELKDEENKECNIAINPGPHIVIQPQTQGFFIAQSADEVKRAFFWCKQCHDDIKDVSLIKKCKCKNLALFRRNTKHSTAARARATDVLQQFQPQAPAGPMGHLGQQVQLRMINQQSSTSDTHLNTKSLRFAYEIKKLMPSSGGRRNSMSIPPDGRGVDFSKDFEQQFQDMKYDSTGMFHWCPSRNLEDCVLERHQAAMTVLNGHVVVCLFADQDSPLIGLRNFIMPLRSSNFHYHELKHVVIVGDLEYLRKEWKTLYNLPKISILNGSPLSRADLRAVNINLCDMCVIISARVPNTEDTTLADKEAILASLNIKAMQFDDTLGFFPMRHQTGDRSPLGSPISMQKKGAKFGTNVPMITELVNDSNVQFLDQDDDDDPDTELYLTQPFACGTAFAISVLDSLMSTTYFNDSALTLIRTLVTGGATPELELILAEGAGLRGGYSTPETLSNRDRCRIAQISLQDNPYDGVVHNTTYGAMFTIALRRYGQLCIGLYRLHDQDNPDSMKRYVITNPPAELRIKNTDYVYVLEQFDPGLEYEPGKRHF
row,Compound,pE50
1,Cc1nn2c(C(C)C)c(C(=O)N[C@H]3CCc4ccccc43)cnc2c1-c1cc(Cl)cc(Cl)c1 [Example 8],7.5
2,Cc1nn2c(C)c(C(=O)N[C@H]3CCCc4ccccc43)cnc2c1-c1ccccc1Cl [Example 9],7.8
3,Cc1nn2c(C)c(C(=O)N[C@H]3CCc4ccccc43)cnc2c1-c1ccccc1Cl [Example 14],7.7
4,Cc1nn2c(C)c(C(=O)N[C@H]3CCCc4ccccc43)cnc2c1-c1cccc(C(F)(F)F)c1 [Example 15],6.7
5,Cc1nn2c(C)c(C(=O)N[C@H]3CCc4ccccc43)cnc2c1-c1cccc(C(F)(F)F)c1 [Example 16],6.7
6,Cc1nn2c(C(C)C)c(C(=O)N[C@H]3CCCc4ccccc43)cnc2c1-c1ccccc1Cl [Example 19],8
7,Cc1nn2c(C(C)C)c(C(=O)N[C@H]3CCc4ccccc43)cnc2c1-c1ccccc1Cl [Example 20],7.9
8,CC(C)c1c(C(=O)N[C@H]2CCCc3ccccc32)cnc2c(-c3ccccc3Cl)cnn12 [Example 21],6.5
9,CC(C)c1c(C(=O)N[C@H]2CCc3ccccc32)cnc2c(-c3ccc(Cl)cc3)cnn12 [Example 23],7.2
10,CC(C)c1c(C(=O)N[C@H]2CCc3ccccc32)cnc2c(-c3ccccc3Cl)cnn12 [Example 24],7.2
11,CC(C)c1c(C(=O)N[C@H]2CCCc3ccccc32)cnc2c(-c3ccc(Cl)cc3)cnn12 [Example 25],6.6
12,Cc1nn2c(C)c(C(=O)N[C@H]3CCc4ccccc43)cnc2c1-c1ccc(Cl)cc1 [Example 27],7.2
13,Cc1nn2c(C(C)C)c(C(=O)N[C@H]3CCCc4ccccc43)cnc2c1-c1ccc(Cl)cc1 [Example 29],6.7
14,Cc1c(C(=O)N[C@H]2CCc3ccccc32)cnc2c(-c3ccc(Cl)cc3)cnn12 [Example 31],6.7
15,Cc1nn2c(C(C)C)c(C(=O)N[C@H]3CCc4ccccc43)cnc2c1-c1ccc(Cl)cc1 [Example 32],7.5
16,CC(C)c1c(C(=O)N[C@H]2CCc3ccccc32)cnc2c(-c3cccc(C(F)(F)F)c3)cnn12 [Example 37],6.7
17,CC(C)c1c(C(=O)N[C@H]2CCc3ccccc32)cnc2c(-c3cccc(Cl)c3)cnn12 [Example 40],6.5
18,Cc1c(C(=O)N[C@H]2CCCc3ccccc32)cnc2c(-c3ccc(Cl)cc3)cnn12 [Example 41],4.8
19,Cc1c(C(=O)N[C@H]2CCCc3ccccc32)cnc2c(-c3ccccc3Cl)cnn12 [Example 42],6.2
20,Cc1c(C(=O)N[C@H]2CCc3ccccc32)cnc2c(-c3ccccc3Cl)cnn12 [Example 43],6.8
21,COc1c(F)ccc(-c2c(C(F)F)nn3c(C4CC4)c(C(=O)N[C@H]4CCOc5ccccc54)cnc23)c1F [Example 269],9
22,O=C(N[C@H]1CCOc2ccccc21)c1cnc2c(-c3cccc(F)c3F)c(C(F)F)nn2c1C1CC1 [Example 270],8.4
23,O=C(N[C@H]1CCOc2ccccc21)c1cnc2c(-c3c(Cl)cccc3Cl)c(C(F)F)nn2c1C1CC1 [Example 271],8.5
24,O=C(N[C@H]1CCOc2ccccc21)c1cnc2c(-c3cc(Cl)c(F)c(Cl)c3)c(C(F)F)nn2c1C1CC1 [Example 272],7.6

row,Compound,pE50
1,O=C(N[C@H]1CCOc2ccccc21)c1cnc2c(-c3cccc(Cl)c3)c(C(F)F)nn2c1C1CC1 [Example 273],8.3
2,O=C(N[C@H]1CCOc2ccccc21)c1cnc2c(-c3ccc(F)c(F)c3)c(C(F)F)nn2c1C1CC1 [Example 274],7.7
3,CC(C)c1c(C(=O)N[C@H]2CCOc3ccccc32)cnc2c(-c3cccc(Cl)c3)c(Cl)nn12 [Example 275],7.9
4,CC(C)c1c(C(=O)N[C@H]2CCOc3ccccc32)cnc2c(-c3cccc(Cl)c3)c(C(F)F)nn12 [Example 276],8
5,CC(C)c1c(C(=O)N[C@H]2CCOc3ccccc32)cnc2c(-c3c(F)ccc(Cl)c3F)c(C(F)F)nn12 [Example 277],8.8
6,CC(C)c1c(C(=O)N[C@H]2CCOc3ccccc32)cnc2c(-c3ccc(F)c(F)c3)c(C(F)F)nn12 [Example 278],7.5
7,CC(C)c1c(C(=O)N[C@H]2CCOc3ccccc32)cnc2c(-c3cccc(F)c3F)c(C(F)F)nn12 [Example 279],8.2
8,O=C(N[C@H]1CCOc2ccccc21)c1cnc2c(-c3c(F)ccc(Cl)c3F)c(C(F)F)nn2c1C1CC1 [Example 280],8.9
9,CC(C)c1c(C(=O)N[C@H]2CCOc3ccccc32)cnc2c(-c3cc(Cl)c(F)c(Cl)c3)c(C(F)F)nn12 [Example 282],8.3
10,Cc1nn2c(C(C)C)c(C(=O)N[C@H]3CCOc4ccccc43)cnc2c1-c1ccc(F)c(N(C)C)c1F [Example 283],9.3
11,COc1c(F)ccc(-c2c(C)nn3c(C4CC4)c(C(=O)N[C@H]4CCOc5ccccc54)cnc23)c1F [Example 284],9.1
12,CC(C)c1c(C(=O)N[C@H]2CCc3ccccc32)cnc2c(-c3cccc(F)c3F)c(Cl)nn12 [Example 285],8
13,CC(C)c1c(C(=O)N[C@H]2CCCc3ccccc32)cnc2c(-c3cccc(F)c3F)c(Cl)nn12 [Example 286],7.9
14,CCc1c(C(=O)N[C@H]2CCOc3ccccc32)cnc2c(-c3cccc(F)c3F)c(C)nn12 [Example 477],8.2
15,CCc1c(C(=O)N[C@H]2CCOc3ccccc32)cnc2c(-c3c(F)cccc3Cl)c(C)nn12 [Example 479],8.2
16,Cc1nn2c(C3CC3)c(C(=O)N[C@H]3CCOc4ccccc43)cnc2c1-c1cccc(Cl)c1F [Example 480],8.9
17,Cc1nn2c(C(C)C)c(C(=O)N[C@H]3CCOc4ccccc43)cnc2c1-c1cccc2[nH]ccc12 [Example 481],7.7
18,COc1c(F)cc(F)c(-c2c(C)nn3c(C4CC4)c(C(=O)N[C@H]4CCOc5ccccc54)cnc23)c1F [Example 482],9.2
19,Cc1nn2c(C(C)C)c(C(=O)N[C@H]3CCOc4ccccc43)cnc2c1-c1cccc2c1ccn2C [Example 483],7.8
20,CCc1c(C(=O)N[C@H]2CCOc3ccccc32)cnc2c(-c3cccc(Cl)c3Cl)c(C)nn12 [Example 484],8.6
21,CCc1c(C(=O)N[C@H]2CCOc3ccccc32)cnc2c(-c3ccc(Cl)cc3Cl)c(C)nn12 [Example 485],8.2
22,CCc1c(C(=O)N[C@H]2CCOc3ccccc32)cnc2c(-c3cc(Cl)ccc3Cl)c(C)nn12 [Example 486],8.4
23,CCc1c(C(=O)N[C@H]2CCOc3ccccc32)cnc2c(-c3ccc(F)c(F)c3)c(C)nn12 [Example 487],7.7
24,CCc1c(C(=O)N[C@H]2CCOc3ccccc32)cnc2c(-c3cccc(Cl)c3)c(C)nn12 [Example 488],8.2

row,Compound,pE50
1,CCc1c(C(=O)N[C@H]2CCOc3ccccc32)cnc2c(-c3ccc(F)c(F)c3F)c(C)nn12 [Example 490],8.3
2,CCc1c(C(=O)N[C@H]2CCOc3ccccc32)cnc2c(-c3c(Cl)cccc3Cl)c(C)nn12 [Example 491],8.3
3,O=C(N[C@H]1CCOc2ccccc21)c1cnc2c(-c3cc(Cl)ccc3Cl)c(C(F)F)nn2c1C1CC1 [Example 492],8.9
4,O=C(N[C@H]1CCOc2ccccc21)c1cnc2c(-c3c(F)cccc3F)c(C(F)F)nn2c1C1CC1 [Example 493],8.7
5,CC(C)c1c(C(=O)N[C@H]2CCOc3ccccc32)cnc2c(-c3cc(Cl)ccc3Cl)c(C(F)F)nn12 [Example 494],8.5
6,CC(C)c1c(C(=O)N[C@H]2CCOc3ccccc32)cnc2c(-c3c(F)cccc3F)c(C(F)F)nn12 [Example 495],8.3
7,CCc1c(C(=O)N[C@H]2CCOc3ccccc32)cnc2c(-c3ccc(F)c(OC)c3F)c(C)nn12 [Example 496],8.9
8,CCc1c(C(=O)N[C@H]2CCOc3ccccc32)cnc2c(-c3cc(Cl)c(F)c(Cl)c3)c(C)nn12 [Example 497],8
9,O=C(N[C@H]1CCOc2ccccc21)c1cnc2c(-c3ccc(F)c(F)c3F)c(C(F)F)nn2c1C1CC1 [Example 498],8.3
10,O=C(N[C@H]1CCOc2ccccc21)c1cnc2c(-c3c(F)cccc3Cl)c(C(F)F)nn2c1C1CC1 [Example 499],8.5
11,CC(C)c1c(C(=O)N[C@H]2CCOc3ccccc32)cnc2c(-c3ccc(F)c(F)c3)c(Cl)nn12 [Example 500],7.7
12,Cc1nn2c(C3CC3)c(C(=O)N[C@H]3CCOc4ccccc43)cnc2c1-c1cccc(O)c1 [Example 501],6.3
13,COc1c(F)ccc(-c2c(C(F)F)nn3c(C(C)C)c(C(=O)N[C@H]4CCOc5ccccc54)cnc23)c1F [Example 502],8.6
14,CC(C)c1c(C(=O)N[C@H]2CCOc3ccccc32)cnc2c(-c3c(Cl)cccc3Cl)c(C(F)F)nn12 [Example 503],7.9
15,Cc1nn2c(C3CC3)c(C(=O)N[C@H]3CCOc4ccccc43)cnc2c1-c1cc(C(F)(F)F)ccc1F [Example 504],8.9
16,CC(C)c1c(C(=O)N[C@H]2CCOc3ccccc32)cnc2c(-c3cccc(Cl)c3Cl)c(C(F)F)nn12 [Example 505],8.5
17,CC(C)c1c(C(=O)N[C@H]2CCOc3ccccc32)cnc2c(-c3c(F)cccc3Cl)c(C(F)F)nn12 [Example 506],8.1
18,CC(C)c1c(C(=O)N[C@H]2CCOc3ccccc32)cnc2c(-c3ccc(Cl)cc3Cl)c(C(F)F)nn12 [Example 507],8.1
19,CC(C)c1c(C(=O)N[C@H]2CCOc3ccccc32)cnc2c(-c3ccc(F)c(F)c3F)c(C(F)F)nn12 [Example 508],8.2
20,Cc1nn2c(C3CC3)c(C(=O)N[C@H]3CCOc4ccccc43)cnc2c1-c1cc(C(F)(F)F)ccc1Cl [Example 509],8.9
21,Cc1nn2c(C3CC3)c(C(=O)N[C@H]3CCOc4ccccc43)cnc2c1-c1cccc2c1CCO2 [Example 510],8.6
22,O=C(N[C@H]1CCOc2ccccc21)c1cnc2c(-c3ccc(Cl)cc3Cl)c(C(F)F)nn2c1C1CC1 [Example 511],8.4
23,O=C(N[C@H]1CCOc2ccccc21)c1cnc2c(-c3cccc(Cl)c3Cl)c(C(F)F)nn2c1C1CC1 [Example 512],8.9
